Source: PMC6222781, “Structural Optimization of Foldamer-Dendrimer Conjugates as Multivalent Agents against the Toxic Effects of Amyloid Beta Oligomers” (Molecules : A Journal of Synthetic Chemistry and Natural …, 2018)

What was measured:
[1] = tested on: SH-SY5Y neuroblastoma cells; format: cell-based, human; details: 24 h, Aβ oligomers 10 µM alone, mean ± SEM, N = 4–8
Description: Real-time cell impedance measurement assay (xCELLigence) was utilized to test the effects of Aβ and the protective effect of the compounds 1, 3–5 on SH-SY5Y neuroblastoma cells. Cells were treated with Aβ oligomers in the concentration of 10 µM either alone or together with compounds 1, 3–5, which were applied in two different concentrations (5 or 10 μM). The cell index was monitored continuously for 48 h. Figure 6 represents the viability readouts after 24 h and 48 h (Table S3). Aβ caused a significant reduction in the viability after 24 h (red column, 85.1 ± 2.6% of control) reflecting the effects of an elongated treatment. […]
Figure 6 Cell viability readouts based on impedance analysis after treatments at different time points: (A) 24 h (B) 48 h. […]
Differentiated SH-SY5Y cells were grown in Dulbecco’s Modified Eagle’s Medium (DMEM) and F12-Ham’s culture medium at a 1:1 ratio supplemented with 10% (v/v) fetal bovine serum (FBS), 1% (v/v) L-glutamine, and 50 µg/mL gentamicin. […] Cells were cultured for 5–7 days and monitored every 15 min until the end of experiments. […] The resulting data was analyzed using real-time cell analyzer software (RTCA, Roche, Basel, Switzerland) and exported to Excel.

acute hippocampal slices = assay: Ex vivo MTT tissue viability test on acute hippocampal slices treated with Aβ oligomers after oxygen-glucose deprivation; format: cell-based, Wistar rats; details: 4 h, Aβ oligomers 10 µM alone, untreated slices as control, mean ± SD, N = 4
From the text: We have applied a rapid, reliable assay, which utilizes acute hippocampal slices for MTT measurements to test the short-term effect of toxic Aβ oligomers on the viability of the surviving cells in the tissue. Acute hippocampal brain slices can be maintained ex vivo only for a few hours, thus excluding the possibility of studying the long-term effects of neuroprotective compounds. Still, the combination of oxygen-glucose deprivation and treatment with Aβ oligomers makes this assay applicable on a short-term basis, which is otherwise impossible with convenient in vitro methods. The Aβ treatment combined with this short and mild oxygen-glucose deprivation provided a relevant ex vivo model for the aging brain and a standard MTT assay was used for the quantification of toxicity (Table S2). Treatment with Aβ oligomers in 10 µM concentration caused a significant decrease in tissue viability after 4 h (Figure 5, white column, 43.2 ± 1.6% of control). To test the neuroprotective effects of the compounds, slices were treated with Aβ in the presence of equimolar amounts of 1, 3–6, respectively. […]
Toxicity measurements were carried out using freshly prepared slices (N = 2 × 10 for one case) of the brains of 10 ± 1-week-old Wistar rats (4 animals, thickness of the brain slices: 400 µm). […] After the treatment, brain slice viability was measured using a specific MTT assay. […]

With “Aβ oligomers: oligomers of amyloid β (1–42) prepared from Ser26 depsipeptide iso-Aβ (1–42)” the “viability, Aβ alone” value [1] was 85.1 ± 2.6 % of control and the “tissue viability, Aβ oligomers alone” value (acute hippocampal slices) was 43.2 ± 1.6 % of control.
